Measurements reported in patent publication US20070111251A1, “Chemical address tags” (priority 2003, published 2007).

Legend:
[1] = tested on: live UACC-62 human melanoma cells; experiment: Organelle-binding test: subcellular localization of styryl library compounds by fluorescence microscopy; format: cell-based; set-up: key to experimentally determined localization (subscript): The subscript m indicates experimentally determined mitochondrial localization; The subscript o indicates experimentally determined non-mitochondrial localization; conditions: for representative localization: FIG. 5, live UACC-62 cells; for experimentally determined localization (subscript): mitochondrial vs non-mitochondrial, live UACC-62 cells
Description: The synthesis was designed so that the reaction mixture can be used directly in biological screening; toxic catalysts (e.g., such as strong acids, bases, and metals) were avoided, and most of the low-boiling point solvents and catalysts (e.g., pyrrolidine) were removed during the microwave reaction, leaving only DMSO, a common solvent for biological sample preparation. In some embodiments, without further purification, the library compounds were incubated with live UACC-62 human melanoma cells growing on glass bottom 96-well plates, and the localizations of the different compounds in the cells were determined using an Axiovert (Carl Zeiss, Inc., Thornwood, N.Y.) microscope (λex=405, 490, and 570 nm; λem>510 nm) with a 100× Zeiss oil immersion objective. […] The images in FIG. 5 show cells stained with selected fluorescent compounds.
Unless otherwise noted in this example, the materials and solvents were obtained from commercial suppliers and were used without further purification. The plate reader used in this example was a Spectra Max Gemini XSF (Molecular Devices, Corp., Sunnyvale, Calif.). In preferred embodiments, for organelle-binding tests, UACC-62 melanoma cells were selected amongst a panel of 60 human cancer cell lines, because their well-spread morphology on glass made them ideally suited for imaging purposes as well as their relevance to biomedical research. (See e.g., R. H. Shoemaker et al., Development of human tumor cell line panels for use in disease oriented drug screening. In: Hall, T. ed., Prediction of Response to Anti-cancer Chemotherapy, New York N.Y.: Alan Liss, 265-286 [1988]).
In some of these embodiments, UACC-62 cells (obtained from the Developmental Therapeutics Program at the National Cancer Institute) were grown in RPMI medium supplemented with 10% fetal calf serum. For microscopy, cells were plated on 96 well tissue-culture plates (Falcon) overnight, in RPMI plus 10% fetal calf serum, at 37° C. in 5% CO2/95% air. Cells were incubated with compounds at an approximate concentration of 50 μM for 1 hour.
A Zeiss Axiovert 135M (Carl Zeiss, Inc., Thornwood, N.Y.) inverted fluorescence microscope outfitted with a FITC/TRITC multipass filter cube (Chroma Technology, Corp., Rockingham, Vt.) was used for screening and routine cell biological fluorescence imaging applications. In some embodiments, epifluorescence microscopy was performed using a Zeiss Axiovert epifluorescence microscope equipped with a 20× objective.
The library compounds, without further purification, were incubated with live UACC-62 human melanoma cells growing on glass bottom 96-well plates (Sigma-Aldrich Corp., St. Louis, Mo.), and the localizations of the different compounds in the cells were determined by an inverted fluorescence microscope (λex=405, 490, and 570 nm; λem>510 nm) at 1000× magnification. Based on their morphology and subcellular distribution, the localizations were ascribed to mitochondria, ER (endoplasmic reticulum), nucleoli, nuclear, and cytoplasmic staining patterns such as diffuse (based on the homogenous staining appearance and exclusion from the nucleus), granular (punctate staining pattern, generally associated with the cell margins) or vesicular (heterogeneous staining pattern, generally associated with the nuclear periphery). Localization studies were performed without a priori information of the compounds' molecular structures. It was possible to ascribe the localization of the compounds to nucleus or cytoplasm, as these organelles are clearly discernible with phase contrast optics. Similarly, it was possible to ascribe localization to nucleoli, as these structures appeared as the most prominent, phase-dense structures within the nucleus. Localization to mitochondria was based on the elongated, characteristic shape of these organelles, which stain positive with established mitochondrial-specific fluorescent probes, like […] or JC-1. (L. B. Chen, Methods Cell Bio., 29:103-123 [1989]). […]

[2] = tested on: mitochondria; experiment: QSLR factorial logistic regression of mitochondrial localization (affinity coefficients, cross-validated prediction); set-up: species or system human; conditions: for αi^mito: influence of A group on mitochondrial localization, greater = stronger; for estimated A group affinity coefficient ai: mitochondrial affinity, ±5 for groups always or never mitochondrial
Procedure, shortened: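 Binary localization data (mitochondrial vs exclusively non-mitochondrial; unlocalized compounds excluded) fitted by factorial logistic regression to assign additive A- and B-group affinity coefficients. A positive summed score predicts mitochondrial localization; predictivity assessed by leave-one-out cross-validation. Groups that always or never localize were fixed at +/−5.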

[3] = Additive decomposition of peak excitation and emission wavelengths (model coefficients of A and B groups); conditions: for αi^em: influence of A group on peak emission wavelength; for αi^em / αi^ex: A group 1 as baseline; for αi^ex: influence of A group on peak excitation wavelength
Procedure, shortened: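 Peak excitation and emission wavelengths of styryl compounds showing a single localized peak were fit by least squares to the additive model λij=αi+βj+εij. This gave separate A- and B-group coefficient sets for excitation and emission, with the first A and B group set as zero baseline. Prediction was checked by leave-one-out cross-validation using Pearson correlation.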

| Compound | experimentally determined localization (subscript) [1] | other results |
| --- | --- | --- |
| C[n+]1ccc(C=Cc2ccc(OCc3ccccc3)c(OCc3ccccc3)c2)cc1.[I-] [Compound A12-B1] | m | representative localization [1]: mitochondria |
| CN(C)c1ccc(C=Cc2cc[n+](C)cc2)c2ccccc12.[I-] [Compound A27-B1] | o |  |
| CC(=O)Nc1ccc(C=Cc2ccc3ccccc3[n+]2C)cc1.[I-] [Compound A18-B8] | m |  |
| COc1ccc2c(ccc(C=Cc3cccc([N+](=O)[O-])c3)[n+]2C)c1.[I-] [Compound A21-B9] | o |  |
| COc1cc(OC)c(OC)cc1C=Cc1cc[n+](C23CC4CC(CC(C4)C2)C3)cc1.[Br-] [Compound A38-B2] | m |  |
| C[n+]1ccc(C=Cc2ccccc2[N+](=O)[O-])c2ccccc21.[I-] [Compound A20-B7] | m |  |
| Oc1ccc(C=Cc2cc[n+](C34CC5CC(CC(C5)C3)C4)cc2)cc1.[Br-] [Compound A16-B2] | m |  |
| COc1ccc2ccccc2c1C=Cc1cccc[n+]1C.[I-] [Compound A23-B3] | o |  |
| COc1ccc(C=Cc2cc[n+](C34CC5CC(CC(C5)C3)C4)cc2)c2ccccc12.[Br-] [Compound A14-B2] | o |  |
| C[n+]1c(C=Cc2ccc3c(c2)Cc2ccccc2-3)ccc2ccccc21.[I-] [Compound H28] |  | representative localization [1]: nuclear |
| Cc1ccnc(-c2cc(C=CC=Cc3ccc(N(C)C)cc3)cc[n+]2C)c1.[I-] [Compound A37-B10] | o | representative localization [1]: reticular |
| C[n+]1ccc(C=Cc2c[nH]c3ccccc23)cc1.[I-] [Compound A24-B1] | o |  |
| C[n+]1c(C=Cc2cccc([N+](=O)[O-])c2)ccc2ccccc21.[I-] [Compound A21-B8] | m |  |
| C[n+]1ccccc1C=Cc1ccc(OCc2ccccc2)c(OCc2ccccc2)c1.[I-] [Compound A12-B3] | m |  |
| C[n+]1ccc(C=Cc2ccc(OCc3ccccc3)c(OCc3ccccc3)c2)c2ccccc21.[I-] [Compound A12-B7] | m |  |
| COc1cc(OC)c(OC)cc1C=Cc1cc[n+](C)c(-c2cc(C)ccn2)c1.[I-] [Compound A38-B10] | m |  |
| Cc1ccnc(-c2cc(C=CCc3ccccc3)cc[n+]2C)c1.[I-] [Compound A1-B10] | m |  |
| COc1ccc2ccccc2c1C=Cc1cc[n+](C)cc1.[I-] [Compound A23-B1] | m |  |
| Cc1cccc(C=CC=Cc2ccccc2)[n+]1C.[I-] [Compound A35-B12] | m |  |
| C[n+]1c(C=Cc2ccc3c(c2)OCO3)ccc2ccccc21.[I-] [Compound A39-B8] | o |  |
| COc1ccc2c(ccc(C=CCc3ccccc3)[n+]2C)c1.[I-] [Compound A1-B9] | m |  |

| Compound | experimentally determined localization (subscript) [1] | other results |
| --- | --- | --- |
| C[n+]1c(C=CCc2ccccc2)ccc2ccccc21.[I-] [Compound A1-B8] | m |  |
| C(=Cc1cc[n+](C23CC4CC(CC(C4)C2)C3)cc1)Cc1ccccc1.[Br-] [Compound A1-B2] | o |  |
| COc1ccc2c(ccc(/C=C/c3ccc(N(C)C)cc3)[n+]2C)c1.[I-] [Compound 119] |  | representative localization [1]: nucleolar |
| COc1cc(OC)c(OC)cc1C=Cc1cc[n+](C)c2ccccc12.[I-] [Compound A38-B7] | o |  |
| COc1ccc(C=Cc2ccc3cc(OC)ccc3[n+]2C)cc1.[I-] [Compound A10-B9] | o |  |
| COc1ccc2c(ccc(C=CC=Cc3ccc(N(C)C)cc3)[n+]2C)c1.[I-] [Compound 137] |  | representative localization [1]: cytosolic |
| C(=Cc1c[nH]c2ccccc12)c1cc[n+](C23CC4CC(CC(C4)C2)C3)cc1.[Br-] [Compound A24-B2] | m | representative localization [1]: mitochondria |
| Cc1cc[n+](C)c(/C=C/c2c[nH]c3ccccc23)c1.[I-] [Compound A24-B11] | m |  |
| COc1ccc(C=Cc2ccc3ccccc3[n+]2C)cc1O.[I-] [Compound A15-B8] | m |  |
| COc1ccc2c(ccc(C=Cc3ccc(NC(C)=O)cc3)[n+]2C)c1.[I-] [Compound A18-B9] | o |  |
| Cc1ccc[n+](C)c1C=CC=Cc1ccc(N(C)C)cc1.[I-] [Compound A37-B4] | m |  |
| Cc1ccnc(-c2cc(C=CC=Cc3ccccc3)cc[n+]2C)c1.[I-] [Compound A35-B10] | o |  |
| Cc1cccc(C=Cc2ccc(OCc3ccccc3)c(OCc3ccccc3)c2)[n+]1C.[I-] [Compound A12-B12] | o |  |
| CCc1ccc(C=Cc2ccc(OCc3ccccc3)c(OCc3ccccc3)c2)[n+](C)c1.[I-] [Compound A12-B5] | o |  |
| C[n+]1ccc(C=CCc2ccccc2)cc1.[I-] [Compound A1-B1] | o |  |
| CN(C)c1ccc(C=Cc2ccc3ccccc3[n+]2C)cc1.[I-] [Compound A19-B8] | o |  |
| Cc1cc(C)[n+](C)c(C=Cc2ccc(OCc3ccccc3)c(OCc3ccccc3)c2)c1.[I-] [Compound A12-B13] | o |  |
| O=Cc1ccc2ccccc2c1 [A group 33] |  | influence of A group on mitochondrial localization [2]: mitochondrial attraction; αi^mito [2]: 5.0; estimated A group affinity coefficient ai [2]: 5.0; influence of group on peak wavelength [3]: bluer; αi^em [3]: −26.5 nm |
| COc1ccc(C=O)cc1O [A group 15] |  | αi^mito [2]: −0.6; estimated A group affinity coefficient ai [2]: −0.6; αi^em [3]: −33.1 nm; αi^ex [3]: −46.9 nm |
| O=Cc1c[nH]c2ccccc12 [A group 24] |  | αi^mito [2]: −1.7; estimated A group affinity coefficient ai [2]: −1.7; αi^em [3]: −24.2 nm; αi^ex [3]: −7.2 nm |
| O=Cc1ccc(Br)cc1 [A group 5] |  | αi^mito [2]: 5.0; estimated A group affinity coefficient ai [2]: 5.0; αi^em [3]: 26.7 nm; αi^ex [3]: −32.3 nm |
